Among the data in PubChem BioAssay (NCI) are TGI and GI50 values, retold here.

Assay in all cases: NCI tumour cell line growth inhibition, 48 h
The test system of experiment [1] is SK-OV-3 ovarian.
Experiment [2] concerns OVCAR-4 ovarian.
The test system of experiment [3] is NCI-H460 lung.
The test system of experiment [4] is HT29 colon.
Experiment [5] has as its system SN12C renal.
In experiment [6] the test system is MOLT-4 leukemia.
In experiment [7] the test system is K-562 leukemia.
The subject of experiment [8] is HCT-15 colon.
The test system of experiment [9] is HOP-92 NSCLC.
The test system of experiment [10] is HCT-116 colon.

Several values for one entry are separate records, joined by “and”; a condition that tells them apart may be missing. Equal entries are not always repeated.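 Values below derive from 48-hour exposures of cells grown in 96-well plates, with endpoints linearly interpolated between the two concentrations bracketing the appropriate inhibition level. GI50 is the concentration that inhibits growth by half. Definition used: TGI = concentration required for complete inhibition of growth.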 Bounds are passed on as bounds.

On to `Clc1ccc(/C=C/c2nc(-c3ccc(Cl)cc3)cn3c2nc2ccccc23)cc1`, for which the TGI in experiment [1], in [2], in experiment [3], in experiment [4], in experiment [5] and in experiment [6] was more than 100 µM each time. The TGI in [7], in [8], in [9] and in [10] was more than 100 µM throughout.
Turning to `O=S(=O)(c1ccccc1)[C@@H]1[C@H]2C=C[C@](CS)(O2)[C@H]1S(=O)(=O)c1ccccc1`, the TGI in [1] is more than 100 µM; in [2] it was more than 100 µM; in experiment [3], more than 100 µM; in experiment [4], more than 100 µM; in experiment [5], more than 100 µM; in [6], 43.6 µM. The TGI in [7] is 36.9 µM; in experiment [8], 28.4 µM; in experiment [9] it was more than 100 µM; in experiment [10], 26 µM.
`Oc1ccc(NCc2cc(O)ccc2O)cc1`: the TGI in [1] turned out to be 36.7 µM; in [2] it was 30.7 µM; in experiment [3], 39.1 µM; in experiment [4] it was 57.6 µM; in experiment [5] it was 39.3 µM; in experiment [6], 7.81 µM. Besides, the TGI in experiment [7] worked out at 55.2 µM; in experiment [8], 36.8 µM; in experiment [9] it was 31.5 µM; in experiment [10], 35.8 µM.
In the case of `CCOC(=O)c1c(SC)nc(-c2ccc(Cl)cc2)sc1=N`, the TGI in [1] is more than 100 µM; in experiment [2] it was more than 100 µM; in experiment [3], more than 100 µM; in experiment [4] it was more than 100 µM; in experiment [5], more than 100 µM; in experiment [6] it was 94 µM. Besides, the TGI in [7] is more than 100 µM; in experiment [8], 73.9 µM; in [9], more than 100 µM; in experiment [10], 72 µM.
For `COc1cccc2c1C(=O)c1c(O)c3c(c(O)c1C2=O)C[C@@](O)(C(C)=O)C[C@@H]3OC1CC(N(C)C)C(O)C(C)O1` (some centres undefined), the GI50 was 0.144 µM and 0.115 µM in [1]; less than 0.0164 µM in experiment [2]; 0.00786 µM in experiment [3]; 0.00516 µM in experiment [4]; 0.0164 µM in [5]; 0.00495 µM in experiment [6]. Also, the GI50 in experiment [7] was 0.00456 µM; in experiment [8], 0.0211 µM; in experiment [9], 0.00454 µM and < 0.0147 µM; in experiment [10], 0.00225 µM. The TGI is 3.17 µM and 3.85 µM in experiment [1]; 0.52 µM and 0.977 µM in [2]; 5.91 µM in [4]; 2.15 µM and 1.01 µM in experiment [5]; 1.09 µM and 0.182 µM in experiment [7].
Consider `CC1C(O)[C@@]2(OC[C@@]34C(=O)CC5(O)[C@H](CCC6Cc7nc8c(nc7C[C@]65C)CC5CC[C@@H]6C7=C[C@H]9O[C@@]%10(O[C@@](C)(CO)C[C@@H]%10O)C(C)[C@@]9(O)[C@]7(C)[C@@H](O)CC6[C@]5(C)C8)C3=CC[C@H]4C2C)OC1(C)C` (some centres undefined), for which the TGI in experiment [1] is 0.274 µM; in experiment [2], more than 3.55 µM; in [3], 0.0937 µM; in experiment [4], 0.061 µM; in experiment [5], more than 3.55 µM; in experiment [6] it was less than 0.000355 µM. Moreover, the TGI worked out at 0.0798 µM in [7], 0.379 µM in [8], 3.25 µM in experiment [9] and 0.542 µM in [10].
On to `COc1cc(CCC(=O)O)c2cc3ccccc3cc2c1O`, for which the TGI is more than 100 µM in [1]; 29.7 µM in experiment [2]; 47.2 µM in experiment [3]; 43.8 µM in experiment [4]; 31.7 µM in [5]; 21.9 µM in [6]. Also, the TGI in [7] was found to be 42.4 µM; in experiment [8], 43.9 µM; in [9] it was 88.3 µM; in experiment [10] it was 31 µM.
With `O=NN(CCCl)C(=O)Nc1ccc(Cl)c(Cl)c1`, the TGI in experiment [1], in experiment [2], in experiment [3], in experiment [4], in [5] and in [6] was more than 100 µM in each case. Also, the TGI is more than 100 µM in [7], more than 100 µM in experiment [8], 97.8 µM in [9] and more than 100 µM in experiment [10].
For `O=[N+]([O-])c1ccc(/C=N/n2c(CCc3n[nH]c(=S)n3/N=C/c3ccc([N+](=O)[O-])o3)n[nH]c2=S)o1`, the TGI in [1] was more than 100 µM; in experiment [2] it was 36.7 µM; in experiment [3] it was more than 100 µM; in [4] it was 86.4 µM; in experiment [6] it was 63.9 µM; in experiment [7], more than 100 µM. The values for the TGI in [8], in experiment [9] and in [10] were 32.7 µM, 33.6 µM and 29 µM, respectively.
For the compound `O=C1CSc2sc(=S)sc2S1`, the TGI in [1], in [2], in experiment [3], in [4], in experiment [5] and in experiment [6] was more than 100 µM throughout. For the same compound, the TGI in experiment [7], in experiment [8], in experiment [9] and in experiment [10] was more than 100 µM in each case.
Regarding `O=[P+](O)c1cccs1`, the TGI in [1], in [3], in experiment [4], in [5], in [6] and in experiment [7] was more than 100 µM throughout. The TGI in experiment [8], in experiment [9] and in experiment [10] was more than 100 µM throughout.
Consider `CC(C)(C)OC(=O)N1CCCC1C(=O)NCCNc1ccc(NCCNC(=O)C2CCCN2C(=O)OC(C)(C)C)c2c1C(=O)c1ccccc1C2=O` (centres undefined), for which the TGI is 39.6 µM in experiment [1]; 51.4 µM in experiment [2]; 38.2 µM in experiment [4]; more than 100 µM in experiment [6]; more than 100 µM in experiment [7]; 26.8 µM in [8]. In addition, the TGI in experiment [9] came out at 30.1 µM; in experiment [10] it was 26 µM.
`Cc1ccc(NC(=O)CC(=O)n2nc(-c3ccccc3)c(N=Nc3ccccc3C(=O)O)c2-c2ccccc2)cc1`: the TGI in [1], in experiment [2], in experiment [5], in [6], in experiment [7] and in [8] was more than 100 µM in each case. The TGI in experiment [9] and in [10] was more than 100 µM in each case.
As to `O=C(Nc1sccc1S(=O)(=O)c1ccc(Cl)cc1)c1ccc(Cl)cc1Cl`, the TGI in experiment [1], in [2], in [3], in experiment [4], in [5] and in [6] was more than 100 µM in each case. The TGI in experiment [7], in [8], in experiment [9] and in experiment [10] was more than 100 µM each time.
Consider `C[As](C)SCC(NC(=O)CCC(N)C(=O)O)C(=O)NCC(=O)O.Cl.c1ccncc1` (centres undefined), for which the TGI is more than 47.8 µM in experiment [1]; 2.64 µM in experiment [2]; 8.9 µM in experiment [3]; 2.14 µM in experiment [5]; 0.977 µM in [8]; 0.763 µM in experiment [9]. The compound further gave a TGI in experiment [10] of 1.53 µM.
Take `COC[C@@H]1Cc2cc(OC)c3c(c2[C@H](c2ccc(OC)c(OC)c2)[C@H]1COC)OCO3`: the TGI in experiment [1], in experiment [3], in experiment [4], in [5], in experiment [6] and in [8] was more than 100 µM throughout. The TGI in experiment [9] and in experiment [10] was more than 100 µM in each case.
As for `O=CNNC(=O)CSc1nc2ccc(I)cc2c(=O)n1Cc1ccccc1`, the TGI was more than 100 µM in experiment [1]; more than 100 µM in experiment [2]; 50.9 µM in [3]; more than 100 µM in experiment [4]; 79.8 µM in [5]; more than 100 µM in experiment [6]. Besides, the TGI in [7] was more than 100 µM; in experiment [8], more than 100 µM; in experiment [9], 63.3 µM; in [10] it was 49.5 µM.
For `COC1=CCC2=C(CCN(C(=O)C3CC3)C2Cc2ccc(OC)c(O)c2)C1` (centres undefined), the TGI in [1], in experiment [2], in [3], in experiment [4], in [5] and in experiment [6] was more than 100 µM in each case. The TGI was more than 100 µM in experiment [7], 59.6 µM in experiment [8], 96.9 µM in experiment [9] and more than 100 µM in experiment [10].
In the case of `O=CN(O)CC(=O)O.[Ni]`, the TGI in [1], in [2], in [3], in experiment [4], in experiment [5] and in [6] was more than 100 µM each time. Moreover, the TGI in experiment [7], in experiment [8], in [9] and in experiment [10] was more than 100 µM each time.
As for `O=C1/C(=C/c2ccc3c(c2)OCO3)Sc2scc(-c3ccc(O)c(O)c3)[n+]21`, the TGI in experiment [1] is 17.5 µM; in [2], 14 µM; in [3], 12.8 µM; in [4] it was 18.6 µM; in experiment [5] it was 4.7 µM; in experiment [6] it was more than 20.1 µM. The TGI in experiment [7] was 2.93 µM; in experiment [8] it was 3.61 µM; in experiment [9], 7.58 µM; in [10] it was 6.29 µM.
`CC(=O)C1=C(C)N(c2ccc(C)cc2)C2(O)C=CC(=O)C3=C(O)c4ccccc4C(=O)C312` (centres undefined): the TGI in experiment [1] was more than 100 µM; in experiment [2], 36 µM; in experiment [3] it was more than 100 µM; in experiment [4], 15.7 µM; in experiment [5] it was 36.9 µM; in [6] it was more than 100 µM. Further, the TGI in [7], in [8], in experiment [9] and in experiment [10] was more than 100 µM each time.
Consider `Nc1nccc2c1ncn2C1C=C(CO)C(O)C1O` (centres undefined), for which the GI50 in [1] is more than 1000 µM; in [2], more than 1000 µM; in experiment [3], 0.578 µM; in experiment [4], 0.816 µM; in experiment [5], 0.351 µM; in [6], 0.768 µM. The GI50 in [7] was 0.249 µM; in experiment [8], 226 µM; in experiment [9] it was more than 1000 µM. Besides, the TGI in experiment [1], in experiment [2], in experiment [3], in experiment [4], in experiment [5] and in experiment [6] was more than 1000 µM in each case. Also, the TGI in experiment [7] was more than 1000 µM; in [8] it was more than 1000 µM; in experiment [9] it was more than 1000 µM; in [10] it was more than 85.8 µM.
Consider `CC(=O)OCC1OC(N2C(=O)CC(N)=Nc3ccccc32)C(OC(C)=O)C(OC(C)=O)C1OC(C)=O` (centres undefined), for which the TGI in [1] was more than 100 µM; in [2] it was more than 100 µM; in experiment [3], more than 100 µM; in [4], more than 100 µM; in experiment [5] it was more than 100 µM; in experiment [6], 57.3 µM. Also, the TGI in [7], in experiment [8], in [9] and in experiment [10] was more than 100 µM each time.
As for `CC(C)(C)C(=O)CC(=O)C(F)(F)C(F)(F)C(F)(F)F.CC(C)(C)C(=O)CC(=O)C(F)(F)C(F)(F)C(F)(F)F.CC(C)(C)C(=O)CC(=O)C(F)(F)C(F)(F)C(F)(F)F.[Er]`, the TGI in [1], in [2], in [3], in experiment [4], in experiment [5] and in experiment [7] was more than 100 µM each time. In [10], this compound gave a TGI of more than 100 µM.
On to `CN(CCNC(=O)c1cn(C)c2c1ccc1cc(Cl)ccc12)CCNC(=O)c1cn(C)c2c1ccc1cc(Cl)ccc12`, for which the TGI is 3.68 µM in experiment [2]; more than 100 µM in experiment [3]; 3.62 µM in [4]; 3.37 µM in experiment [5]; 11.3 µM in [6]; 13.6 µM in [7]. The TGI in [8] is 3.3 µM; in experiment [9], 18.8 µM; in [10], 3.18 µM.
